{
  "source": "paper PMC13315578",
  "key": {"Min Elp3 [1]": {"molecular_target": "T1, Min Elp3 (Methanocaldococcus infernus, UniProt D5VRB9)", "T1 construct": "gene Metin_0452; E. coli codon-optimized gene, N-terminal 6xHis tag with TEV site (pET28a-tev), tag kept for MST; E. coli BL21(DE3) host with isc operon; anaerobically purified, [4Fe-4S] cluster chemically reconstituted", "T1 sequence (D5VRB9 1-534)": "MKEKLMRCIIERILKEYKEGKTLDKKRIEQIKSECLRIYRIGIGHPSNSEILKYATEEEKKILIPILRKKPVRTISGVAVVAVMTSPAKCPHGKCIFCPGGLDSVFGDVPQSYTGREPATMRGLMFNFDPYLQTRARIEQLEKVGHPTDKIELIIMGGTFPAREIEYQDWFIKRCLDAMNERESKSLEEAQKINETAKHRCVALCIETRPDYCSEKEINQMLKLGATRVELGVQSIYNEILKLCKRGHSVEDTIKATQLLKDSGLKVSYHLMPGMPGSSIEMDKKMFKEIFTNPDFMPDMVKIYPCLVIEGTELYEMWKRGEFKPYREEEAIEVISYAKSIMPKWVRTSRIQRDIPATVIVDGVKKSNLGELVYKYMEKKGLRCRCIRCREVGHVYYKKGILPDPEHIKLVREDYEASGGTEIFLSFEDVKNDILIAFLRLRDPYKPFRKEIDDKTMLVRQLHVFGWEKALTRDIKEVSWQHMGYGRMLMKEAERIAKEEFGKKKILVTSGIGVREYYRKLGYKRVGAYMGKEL", "test": "microscale thermophoresis, hill fit", "type": "binding", "settings": "anaerobic, pH 7.5, room temperature; His-tagged protein labelled with iFluor 647-Tris NTA; no tRNA"}, "Min Elp3 [2]": {"molecular_target": "T2, Min Elp3 (Methanocaldococcus infernus, UniProt D5VRB9, Y304A)", "T2 construct": "gene Metin_0452; E. coli codon-optimized gene, N-terminal 6xHis tag with TEV site (pET28a-tev), tag kept for MST; E. coli BL21(DE3) host with isc operon; anaerobically purified, [4Fe-4S] cluster chemically reconstituted", "T2 sequence (D5VRB9 whole entry Y304A)": "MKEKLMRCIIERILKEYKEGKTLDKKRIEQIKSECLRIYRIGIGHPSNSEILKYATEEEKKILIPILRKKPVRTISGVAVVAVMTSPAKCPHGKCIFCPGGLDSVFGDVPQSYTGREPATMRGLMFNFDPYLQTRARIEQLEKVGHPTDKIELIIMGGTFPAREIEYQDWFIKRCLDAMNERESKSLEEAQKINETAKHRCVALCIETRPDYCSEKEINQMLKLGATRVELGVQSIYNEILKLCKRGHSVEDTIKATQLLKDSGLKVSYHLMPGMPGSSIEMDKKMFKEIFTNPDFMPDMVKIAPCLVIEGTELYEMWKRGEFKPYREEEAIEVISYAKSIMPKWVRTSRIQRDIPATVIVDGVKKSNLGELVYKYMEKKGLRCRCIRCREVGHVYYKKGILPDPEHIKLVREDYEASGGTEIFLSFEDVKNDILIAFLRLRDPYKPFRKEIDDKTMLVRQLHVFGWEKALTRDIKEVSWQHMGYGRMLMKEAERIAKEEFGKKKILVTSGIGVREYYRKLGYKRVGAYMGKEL", "test": "microscale thermophoresis, hill fit", "type": "binding", "settings": "anaerobic, pH 7.5, room temperature; His-tagged protein labelled with iFluor 647-Tris NTA; no tRNA"}, "Min Elp3 [3]": {"molecular_target": "T3, Min Elp3 (Methanocaldococcus infernus, UniProt D5VRB9, E207A)", "T3 construct": "gene Metin_0452; E. coli codon-optimized gene, N-terminal 6xHis tag with TEV site (pET28a-tev), tag kept for MST; E. coli BL21(DE3) host with isc operon; anaerobically purified, [4Fe-4S] cluster chemically reconstituted", "T3 sequence (D5VRB9 whole entry E207A)": "as the sequence (D5VRB9 whole entry Y304A) above, with E207A, A304Y counted along it", "test": "microscale thermophoresis, hill fit", "type": "binding", "settings": "anaerobic, pH 7.5, room temperature; His-tagged protein labelled with iFluor 647-Tris NTA; no tRNA"}, "Min Elp3 [4]": {"molecular_target": "T4, Min Elp3 (Methanocaldococcus infernus, UniProt D5VRB9, M156W)", "T4 construct": "gene Metin_0452; E. coli codon-optimized gene, N-terminal 6xHis tag with TEV site (pET28a-tev), tag kept for MST; E. coli BL21(DE3) host with isc operon; anaerobically purified, [4Fe-4S] cluster chemically reconstituted", "T4 sequence (D5VRB9 whole entry M156W)": "as the sequence (D5VRB9 whole entry Y304A) above, with M156W, A304Y counted along it", "test": "microscale thermophoresis, hill fit", "type": "binding", "settings": "anaerobic, pH 7.5, room temperature; His-tagged protein labelled with iFluor 647-Tris NTA; no tRNA"}, "Min Elp3 [5]": {"molecular_target": "T5, Min Elp3 (Methanocaldococcus infernus, UniProt D5VRB9, K302A)", "T5 construct": "gene Metin_0452; E. coli codon-optimized gene, N-terminal 6xHis tag with TEV site (pET28a-tev), tag kept for MST; E. coli BL21(DE3) host with isc operon; anaerobically purified, [4Fe-4S] cluster chemically reconstituted", "T5 sequence (D5VRB9 whole entry K302A)": "as the sequence (D5VRB9 whole entry Y304A) above, with K302A, A304Y counted along it", "test": "microscale thermophoresis, hill fit", "type": "binding", "settings": "anaerobic, pH 7.5, room temperature; His-tagged protein labelled with iFluor 647-Tris NTA; no tRNA"}, "Min Elp3 WT": {"molecular_target": "T6, Min Elp3 WT (Methanocaldococcus infernus, UniProt D5VRB9 1-534)", "T6 sequence": "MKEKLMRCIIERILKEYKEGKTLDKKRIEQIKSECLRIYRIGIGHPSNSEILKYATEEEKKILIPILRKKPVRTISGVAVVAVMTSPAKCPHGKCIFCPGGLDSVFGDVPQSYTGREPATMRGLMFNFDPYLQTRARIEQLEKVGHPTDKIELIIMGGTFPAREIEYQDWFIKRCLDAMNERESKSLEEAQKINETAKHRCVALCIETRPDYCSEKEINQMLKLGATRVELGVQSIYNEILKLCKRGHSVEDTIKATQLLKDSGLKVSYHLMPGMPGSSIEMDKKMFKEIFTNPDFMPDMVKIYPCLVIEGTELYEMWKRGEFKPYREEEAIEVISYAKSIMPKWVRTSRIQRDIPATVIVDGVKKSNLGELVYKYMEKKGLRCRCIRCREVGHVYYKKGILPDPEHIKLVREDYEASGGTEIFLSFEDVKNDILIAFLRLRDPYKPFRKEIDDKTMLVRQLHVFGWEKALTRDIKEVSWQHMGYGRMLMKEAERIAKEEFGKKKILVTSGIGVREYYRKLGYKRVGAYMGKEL", "test": "EMSA; EMSA: 250 nM tRNA, 0-20 uM Elp3, 100 mM HEPES pH 7.5, 750 mM NaCl, 25 mM DTT, 20 °C 30 min; 5% TBE gel at 4 °C", "settings": "protein: recombinant; tags: N-terminal 6xHis-TEV site (pET28a-tev); tRNA fold, annealed"}},
  "data": [
    {"molecule": "C[S+](CC[C@H](N)C(=O)O)C[C@H]1O[C@@H](n2cnc3c(N)ncnc32)[C@H](O)[C@@H]1O", "note": "(stereo partly drawn) [SAM]", "values": [
      {"measurement": "KD", "setting": "Min Elp3 [1]", "result": "Elp3-SAM binding was measured by triplicate microscale thermophoresis (MST) assays"},
      {"measurement": "KD", "setting": "Min Elp3 [2]", "result": "Y304A (cyan triangles) mutants bind cofactor SAM with comparable affinity to WT Elp3"},
      {"measurement": "KD", "setting": "Min Elp3 [3]", "result": "E207A (dark blue triangles), K302A (light blue squares), and Y304A (cyan triangles) mutants bind cofactor SAM"},
      {"measurement": "KD", "setting": "Min Elp3 [4]", "result": "Elp3 M156W (light blue squares) binds cofactor SAM with comparable affinity to WT Elp3"},
      {"measurement": "KD", "setting": "Min Elp3 [5]", "result": "K302A (light blue squares), and Y304A (cyan triangles) mutants bind cofactor SAM"}
    ]},
    {"molecule": "tRNA ArgUCU (structured_RNA) RNA: GGACCCGUAGCCUAGCCUGGAUAGGGCACCGGCCUUCUAAGCCGGGGGUCGGGGGUUCAAAUCCCCCCGGGUCCGCCA", "values": [
      {"measurement": "binding result", "setting": "Min Elp3 WT", "result": "binds"}
    ]}
  ]
}
